Reference: patent US8067042B1 (Mutual Pharmaceutical Company, Inc., priority 2007, dated 2011)
“And” between values parts separate entries of the source, which are not always exact repeats. Equal entries are not always repeated. Where two headings read alike, the source gives them in different places.

Legend:
[1] = target: Human CYP2E1 + P450 Reductase + Cytochrome b5 SUPERSOMES (Homo sapiens, UniProt P05181)
Description: (§1) In this study, individual CYP isoforms expressed from human cDNA and P450 reductase cDNA were used (BD SUPERSOMES™ Enzymes, BD Biosciences Discovery Labware, Woburn, Mass.). SUPERSOMES™ are microsomes from baculovirus-infected insect cells containing singly expressed recombinant human CYP enzymes.
(§2) After a 5-minute preincubation, an appropriate amount of the appropriate buffer was added to the reaction mixtures to make the final volume of 0.5 mL. The incubations were continued for 60 minutes.
(§3) All incubation reactions were terminated by adding 0.5 mL methanol, and the samples were transferred to cryovials and stored at −70±10° C. until analysis.

[2] = target: Human CYP2C9*1 (Arg144) + P450 Reductase + Cytochrome b5 SUPERSOMES (Homo sapiens, UniProt P11712)
Description: as §1, §2, §3

[3] = target: T1, Human CYP2B6 + P450 Reductase + Cytochrome b5 SUPERSOMES (Homo sapiens, UniProt P20813)
T1 sequence (P20813 1-491): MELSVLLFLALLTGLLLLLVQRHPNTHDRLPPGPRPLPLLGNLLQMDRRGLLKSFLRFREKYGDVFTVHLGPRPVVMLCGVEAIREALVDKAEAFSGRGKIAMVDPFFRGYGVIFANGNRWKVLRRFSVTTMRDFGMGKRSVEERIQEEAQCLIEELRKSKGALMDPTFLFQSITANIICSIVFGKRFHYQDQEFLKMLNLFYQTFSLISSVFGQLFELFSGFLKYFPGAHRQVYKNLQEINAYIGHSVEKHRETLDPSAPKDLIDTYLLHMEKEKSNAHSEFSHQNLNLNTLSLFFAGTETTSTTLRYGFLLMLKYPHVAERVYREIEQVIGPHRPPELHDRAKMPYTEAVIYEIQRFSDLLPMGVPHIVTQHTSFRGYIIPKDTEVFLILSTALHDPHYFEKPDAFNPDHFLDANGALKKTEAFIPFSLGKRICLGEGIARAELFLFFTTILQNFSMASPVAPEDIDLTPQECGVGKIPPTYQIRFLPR
Description: as §1, §2, §3

[4] = target: T2, Human CYP2A6 + P450 Reductase + Cytochrome b5 SUPERSOMES (Homo sapiens, UniProt P11509)
T2 sequence (P11509 1-494): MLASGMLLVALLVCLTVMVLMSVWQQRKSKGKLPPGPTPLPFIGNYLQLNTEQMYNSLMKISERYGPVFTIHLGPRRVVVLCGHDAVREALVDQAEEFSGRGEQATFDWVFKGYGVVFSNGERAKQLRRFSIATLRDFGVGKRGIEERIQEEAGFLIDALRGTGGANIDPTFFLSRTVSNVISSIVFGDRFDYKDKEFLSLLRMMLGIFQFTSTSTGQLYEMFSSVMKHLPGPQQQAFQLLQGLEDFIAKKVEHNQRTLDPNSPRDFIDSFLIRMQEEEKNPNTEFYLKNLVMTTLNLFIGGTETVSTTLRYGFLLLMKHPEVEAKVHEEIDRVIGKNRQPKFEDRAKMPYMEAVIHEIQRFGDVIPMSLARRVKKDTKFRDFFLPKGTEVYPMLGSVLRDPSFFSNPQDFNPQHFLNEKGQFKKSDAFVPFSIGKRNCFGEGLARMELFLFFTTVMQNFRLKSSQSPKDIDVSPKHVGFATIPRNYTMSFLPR
Description: as §1, §2, §3

[5] = 5 μM, 5 pmol enzyme, listed as megestrol acetate
[6] = 5 μM, 20 pmol enzyme, listed as megestrol acetate
[7] = 50 μM, 5 pmol enzyme, listed as megestrol acetate
[8] = 50 μM, 20 pmol enzyme, listed as megestrol acetate

Chain of Human CYP2E1 + P450 Reductase + Cytochrome b5 SUPERSOMES (P05181 whole entry, canonical isoform): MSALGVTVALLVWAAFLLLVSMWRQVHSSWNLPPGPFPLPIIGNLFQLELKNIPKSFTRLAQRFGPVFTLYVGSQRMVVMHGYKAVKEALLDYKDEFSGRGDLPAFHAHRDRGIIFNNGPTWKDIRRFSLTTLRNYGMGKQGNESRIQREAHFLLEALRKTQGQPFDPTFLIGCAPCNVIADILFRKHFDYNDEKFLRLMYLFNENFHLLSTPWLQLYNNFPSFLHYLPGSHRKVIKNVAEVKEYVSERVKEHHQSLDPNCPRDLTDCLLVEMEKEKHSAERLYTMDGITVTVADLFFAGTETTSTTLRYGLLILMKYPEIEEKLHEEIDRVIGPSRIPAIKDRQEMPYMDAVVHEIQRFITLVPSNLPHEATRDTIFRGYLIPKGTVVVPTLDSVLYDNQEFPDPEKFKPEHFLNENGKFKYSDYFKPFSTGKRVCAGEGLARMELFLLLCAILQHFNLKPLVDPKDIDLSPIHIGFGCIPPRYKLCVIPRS

Compound: CC(=O)O[C@]1(C(C)=O)CC[C@H]2[C@@H]3C=C(C)C4=CC(=O)CC[C@]4(C)[C@H]3CC[C@@]21C [Megestrol Acetate, 17 α-acetyloxy-6-methylpregna-4,6-diene-3,20-dione]
- Individual Raw Data Observed ([1]; 5 μM, 5 pmol enzyme): 2.008 µM and 2.126 µM and 2.034 µM
- Percent of Parent Disappearance Individual ([1]; 5 μM, 5 pmol enzyme): 20.4% and 15.8% and 19.4%
- Percent of Parent Disappearance Mean ± SD ([1]; 5 μM, 5 pmol enzyme): 18.5 ± 02.46%
- Percent of Parent Disappearance Mean ± SD [1, 5]: 18.5±2.46%
- Individual Raw Data Observed ([1]; 5 μM, 20 pmol enzyme): 1.473 µM and 1.491 µM and 1.693 µM
- Percent of Parent Disappearance Individual ([1]; 5 μM, 20 pmol enzyme): −1.62% and −2.86% and −16.8%
- Percent of Parent Disappearance Mean ± SD ([1]; 5 μM, 20 pmol enzyme): −7.09 ± 8.42%
- Percent of Parent Disappearance Mean ± SD [1, 6]: 7.09±8.42%
- Individual Raw Data Observed ([1]; 50 μM, 5 pmol enzyme): 21.97 µM and 17.04 µM and 17.99 µM
- Percent of Parent Disappearance Mean ± SD ([1]; 50 μM, 5 pmol enzyme): −10.5 ± 15.2%
- Percent of Parent Disappearance Mean ± SD [1, 7]: 10.5±15.2%
- Individual Raw Data Observed ([1]; 50 μM, 20 pmol enzyme): 21.04 µM and 21.41 µM and 21.74 µM
- Percent of Parent Disappearance Individual ([1]; 50 μM, 20 pmol enzyme): −1.09% and −2.83% and −4.46%
- Percent of Parent Disappearance Mean ± SD ([1]; 50 μM, 20 pmol enzyme): −2.79 ± 1.69%
- Percent of Parent Disappearance Mean ± SD [1, 8]: 2.79±1.69%
- Individual Raw Data Observed ([2]; 5 μM, 5 pmol enzyme): 2.098 µM and 2.127 µM and 2.133 µM
- Percent of Parent Disappearance Individual ([2]; 5 μM, 5 pmol enzyme): 3.68% and 2.33% and 2.08%
- Percent of Parent Disappearance Mean ± SD ([2]; 5 μM, 5 pmol enzyme): 2.70 ± 0.860%
- Percent of Parent Disappearance Mean ± SD [2, 5]: 2.70±0.860%
- Individual Raw Data Observed ([2]; 5 μM, 20 pmol enzyme): 2.314 µM and 2.379 µM and 2.134 µM
- Percent of Parent Disappearance Individual ([2]; 5 μM, 20 pmol enzyme): 9.53% and 6.99% and 16.6%
- Percent of Parent Disappearance Mean ± SD ([2]; 5 μM, 20 pmol enzyme): 11.0 ± 4.96%
- Percent of Parent Disappearance Mean ± SD [2, 6]: 11.0±4.96%
- Individual Raw Data Observed ([2]; 50 μM, 5 pmol enzyme): 20.38 µM and 20.18 µM and 20.9 µM
- Percent of Parent Disappearance Individual ([2]; 50 μM, 5 pmol enzyme): 21.5% and 22.2% and 19.5%
- Percent of Parent Disappearance Mean ± SD ([2]; 50 μM, 5 pmol enzyme): 21.0 ± 1.43%
- Percent of Parent Disappearance Mean ± SD [2, 7]: 21.0±1.43%
- Individual Raw Data Observed ([2]; 50 μM, 20 pmol enzyme): 24.33 µM and 21.36 µM and 25.28 µM
- Percent of Parent Disappearance Individual ([2]; 50 μM, 20 pmol enzyme): −1.60% and 10.8% and −5.60%
- Percent of Parent Disappearance Mean ± SD ([2]; 50 μM, 20 pmol enzyme): 1.19 ± 8.54%
- Percent of Parent Disappearance Mean ± SD [2, 8]: 1.19±8.54%
- Individual Raw Data Observed ([3]; 5 μM, 5 pmol enzyme): 2.221 µM and 2.3 µM and 2.31 µM
- Percent of Parent Disappearance Individual ([3]; 5 μM, 5 pmol enzyme): −0.459% and −4.00% and −4.49%
- Percent of Parent Disappearance Mean ± SD ([3]; 5 μM, 5 pmol enzyme): −2.98 ± 2.20%
- Percent of Parent Disappearance Mean ± SD [3, 5]: 2.98±2.20%
- Individual Raw Data Observed ([3]; 5 μM, 20 pmol enzyme): 2.474 µM and 2.381 µM and 2.385 µM
- Percent of Parent Disappearance Individual ([3]; 5 μM, 20 pmol enzyme): −0.257% and 3.52% and 3.37%
- Percent of Parent Disappearance Mean ± SD ([3]; 5 μM, 20 pmol enzyme): 2.21 ± 2.14%
- Percent of Parent Disappearance Mean ± SD [3, 6]: 2.21±2.14%
- Individual Raw Data Observed ([3]; 50 μM, 5 pmol enzyme): 20.88 µM and 21.85 µM and 25.99 µM
- Percent of Parent Disappearance Individual ([3]; 50 μM, 5 pmol enzyme): 3.63% and −0.862% and −20.0%
- Percent of Parent Disappearance Mean ± SD ([3]; 50 μM, 5 pmol enzyme): −5.73 ± 12.5%
- Percent of Parent Disappearance Mean ± SD [3, 7]: 5.73±12.5%
- Individual Raw Data Observed ([3]; 50 μM, 20 pmol enzyme): 21.46 µM and 22.47 µM and 22.35 µM
- Percent of Parent Disappearance Mean ± SD ([3]; 50 μM, 20 pmol enzyme): 2.53 ± 2.43%
- Percent of Parent Disappearance Mean ± SD [3, 8]: 2.53±2.43%
- Individual Raw Data Observed ([4]; 5 μM, 5 pmol enzyme): 2.313 µM and 2.35 µM and 2.527 µM
- Percent of Parent Disappearance Individual ([4]; 5 μM, 5 pmol enzyme): 3.96% and 2.43% and −4.94%
- Percent of Parent Disappearance Mean ± SD ([4]; 5 μM, 5 pmol enzyme): 0.486 ± 4.76%
- Percent of Parent Disappearance Mean ± SD [4, 5]: 0.486±4.76%
- Individual Raw Data Observed ([4]; 5 μM, 20 pmol enzyme): 2.456 µM and 2.487 µM and 2.684 µM
- Percent of Parent Disappearance Individual ([4]; 5 μM, 20 pmol enzyme): 1.36% and 0.129% and −7.81%
- Percent of Parent Disappearance Mean ± SD ([4]; 5 μM, 20 pmol enzyme): −2.11 ± 4.98%
- Percent of Parent Disappearance Mean ± SD [4, 6]: 2.11±4.98%
- Individual Raw Data Observed ([4]; 50 μM, 5 pmol enzyme): 24.75 µM and 23.3 µM and 23.45 µM
- Percent of Parent Disappearance Individual ([4]; 50 μM, 5 pmol enzyme): −5.02% and 1.11% and 0.484%
- Percent of Parent Disappearance Mean ± SD ([4]; 50 μM, 5 pmol enzyme): −1.14 ± 3.38%
- Percent of Parent Disappearance Mean ± SD [4, 7]: 1.14±3.38%
- Individual Raw Data Observed ([4]; 50 μM, 20 pmol enzyme): 21.74 µM and 22.68 µM and 23.15 µM
- Percent of Parent Disappearance Individual ([4]; 50 μM, 20 pmol enzyme): 4.54% and 0.420% and −1.66%
- Percent of Parent Disappearance Mean ± SD ([4]; 50 μM, 20 pmol enzyme): 1.10 ± 3.16%
- Percent of Parent Disappearance Mean ± SD [4, 8]: 1.10±3.16%
